The record followed here is US20090281054A1, “COMPOSITIONS AND METHODS COMPRISING CAPURAMYCIN ANALOGUES” (priority 2008, published 2009).

Values after ≈ are worked out from the molar mass of the structure shown. Values joined by “and” are separate entries in the source; they are usually repeats but may differ in a detail not shown here. Equal entries are not always repeated. Where two headings read alike, the source gives them in different places.

Data set [1] has as its system MTB in macrophages. The class given is cell-based, Mycobacterium tuberculosis.
The subject of data set [2] is MTB. It is filed as in vivo, mouse. As to conditions: 2 weeks treatment; for Lung CFU ± SD: Control 3.8 ± 1.9 × 10^8; for Lung Log CFU: Control 8.58.
Data set [3] has as its system MTB H37Rv. The experiment in a line: MIC by broth microdilution. The class given is cell-based. As to conditions: Mycobacterium tuberculosis. Here is the method:
(§1) The SQ997 amino acid derivatives shown in Table 2 were tested for in vitro activity against MTB, cytotoxicity for uninfected J774 cells to determine IC50, and for intracellular activity in the macrophage assay (Table 15). […] Cell viability remained similar to SQ997, or slightly better as cell morphologic changes were reduced.
For orientation: In broth dilution the organism is exposed to a series of concentrations in liquid medium.

Data set [4] can be described thus: in vitro. The class given is cell-based. As to conditions: mouse. Here is the method: as §1
Data set [5] has as its system MTB-pSMT1 luciferase reporter strain. The experiment in a line: Activity against slowly replicating (hypoxic) MTB. The class given is cell-based. As to conditions: Mycobacterium tuberculosis.
The subject of data set [6] is MTB in J774A.1 cells. The experiment in a line: Intracellular activity of SQ641 with efflux pump blockers. It is filed as cell-based, Mycobacterium tuberculosis. As to conditions: INH 0.25 μg/ml.
The subject of data set [7] is MTB-H37Rv. The experiment in a line: Post-antibiotic effect (PAE). It is filed as cell-based, Mycobacterium tuberculosis. As to conditions: 4 μg/ml, 2 hr of exposure. As to the method: PAE of SQ641. PAE of SQ641 was determined as described (Chan et al. Antimicrob. Agents Chemother., 2004, 48(1), 340-343). At the end of incubation, suspensions were diluted 1/25, and 0.1 ml was injected into each of triplicate BACTEC vials: drug dilution was 1000-fold in the BACTEC vials. Drug carryover controls (to ascertain absence of any carryover drug) consisting of the same MTB suspension as in the test and similar drug dilutions were mixed immediately, diluted 1/25, and 0.1 ml was injected into BACTEC vials. BACTEC vials were incubated at 37° C. and read in a BACTEC TB-460 reader every 24 hr until the cumulative GI in the control reached 999. PAE was calculated from the formula PAE=T−C, where T is the time required for the drug-exposed organisms to reach a cumulative GI of 100 and C is the time required for the controls to reach a cumulative GI of 100.
PAE determines the time required for the organisms to recover following exposure to an antimicrobial agent for a short duration. PAE activities of both SQ641 and INH, each at 4 μg/ml, were investigated with MTB-H37Rv. Following 2 hr of exposure to drugs, the PAE of INH was 17 hr as compared to 55 hr for SQ641. The PAE of SQ641 was over 3 times that of INH.

Data set [8] concerns MTB inside macrophages. Put plainly: Intracellular activity of DMSO-solubilized drug in MTB infected macrophages. The class given is cell-based, Mycobacterium tuberculosis. As to conditions: 0.25 μg/ml (2 X MIC); Day 0 RLU 443, Control Day 7 4251.
Data set [9] concerns intracellular MTB (MTBp-SMT1) in J774A.1 macrophages. Put plainly: Intracellular activity of SQ641-TPGS micelles. It is filed as cell-based, Mycobacterium tuberculosis.
The test system of data set [10] is M. kansaii (MKN; ATCC12478 & 35775). The experiment in a line: MIC by microdilution method in 7H9 broth. It is filed as cell-based, M. kansasii. As to conditions: Mycobacterium kansasii, read-out: MIC.
Data set [11] concerns MTB in J774 cells. The experiment in a line: Intracellular activity of amino acid conjugates. The class given is cell-based, Mycobacterium tuberculosis. As to conditions: 0.125 μg/ml; day 0 RLU 775, Control day 7 31700. Here is the method: The amino acid conjugates were tested at concentrations of 4 mg/mL and 8 mg/mL compared with a control and isoniazid (INH).
The intracellular activity against MTB by capuramycin amino acid derivatives was tested. Cells J774 were infected with MTB and treated for 7 days with the amino acid derivative. The mean Relative Light Unites (RLU), an estimation of bacterial viability, was measured as described in Snewin et al., Infect. Immun., 1999, 67(9), 4586-4593).

For data set [12], the system named is M. smegmatis (MSMG; MC2155). The experiment in a line: MIC by microdilution method in 7H9 broth. The class given is cell-based. As to conditions: Mycolicibacterium smegmatis, MC2155|MC^2155; MSMG MC^2155; 72 hr; read-out: MIC.
Data set [13] concerns M. smegmatis. The experiment in a line: Synergy by checkerboard titration (microdilution). The class given is cell-based. As to conditions: M. smegmatis.
The test system of data set [14] is M. abscessus (MAB; ATCC 700869). Put plainly: MIC by microdilution method in 7H9 broth. As to conditions: Mycobacteroides abscessus, ATCC700869; MAB 700869; read-out: MIC. It is filed as cell-based.

Broadly, the MIC is the lowest concentration found to suppress growth. As a reminder, the IC50 is the point on the concentration scale where inhibition reaches its midpoint.

Regarding “D-alpha-tocopheryl poly(ethylene glycol) 1000 succinate [TPGS]”, in data set [1], the “Effect of TPGS alone on MTB growth in macrophages” value is given as “increased MTB growth”; the “Mean RLU on day 7” value is 13903 RLU and 14595 RLU and 13942 RLU. Also, in data set [2] (IP, 250 mg/kg), the “Lung CFU ± SD” value is 3.0 ± 1.3 × 10^8 CFU and the “Lung Log CFU” value came out at 8.48 Log CFU.
`CO[C@H]1[C@@H](OC(=O)C2CCNCC2)[C@H](N2C=CC(=O)NC2)O[C@@H]1[C@@H](OC1OC(C(=O)N[C@H]2CCC[C@@H](C)NC2=O)=C[C@H](O)[C@@H]1O)C(N)=O` (some centres unmarked) [997-isonipecotic acid] showed a minimal inhibitory concentration (MIC) in data set [3] of 8 µg/mL (≈ 11.8 µM). This compound also showed an IC50 in [4] greater than 32 µg/mL.
`CO[C@H]1[C@@H](OC(=O)c2ccncc2)[C@H](N2C=CC(=O)NC2)O[C@@H]1[C@@H](OC1OC(C(=O)N[C@H]2CCC[C@@H](C)NC2=O)=C[C@H](O)[C@@H]1O)C(N)=O` (some centres unmarked) [997-isonicotinic acid]: in data set [3], it took 4 µg/mL (≈ 5.93 µM) to inhibit growth (MIC). This compound registered a half-inhibitory concentration (IC50) in data set [4] greater than 32 µg/mL.
For the compound `NNC(=O)c1ccncc1` [INH, isoniazid, reference compound], the MIC in data set [5] worked out at 0.062 µg/mL (≈ 0.452 µM); in [5] (Hypoxic, […]), 0.125 µg/mL (≈ 0.911 µM); in data set [10] (ATCC 12478 / ATCC 35775, MKN ATCC35775), 1 µg/mL (≈ 7.29 µM); in data set [10] (MKN ATCC12478), 2 µg/mL (≈ 14.6 µM); in data set [12], 8 µg/mL (≈ 58.3 µM); in data set [13] (Mycolicibacterium smegmatis, drug alone), 8 µg/mL. In data set [14], the MIC is greater than 32 µg/mL. For the same compound, the “Mean RLU at Day 7” value was 127 RLU in data set [6] (Table 13, Day 0 RLU 425, Control Day 7 6283); 20 RLU in data set [6] (Table 14, Day 0 RLU 811, Control Day 7 3004); 11 RLU in [8]; 8 RLU in data set [9] (Expt 1, one day drug exposure, 0.5 μg/ml, Day 0 RLU 104, CONTROL Day 7 906); 1 RLU in data set [9] (Expt 2, four days drug exposure, 0.25 μg/ml, Day 0 RLU 205, CONTROL Day 7 491). The “PAE (post-antibiotic effect)” value in data set [7] was 17 h. The “Mean RLU on day 7” value is on record as 434 RLU in data set [1] (INH 0.125 μg/ml, day 0 RLU 1397, Control day 7 9075) and 131 RLU in data set [11]. In [2] (PO, 25 mg/kg), the “Lung CFU ± SD” value is recorded as 1.9 ± 0.8 × 10^7 CFU. Further, in data set [2] (PO, 25 mg/kg), the “Lung Log CFU” value amounted to 7.28 Log CFU. In addition, the “MIC Combination” value in data set [13] (combination SQ641 + INH) was 1.0 µg/mL.
Consider `CO[C@H]1[C@@H](OC(=O)CCCCCCCN)[C@H](N2C=CC(=O)NC2)O[C@@H]1[C@@H](OC1OC(C(=O)N[C@H]2CCC[C@@H](C)NC2=O)=C[C@H](O)[C@@H]1O)C(N)=O` (some centres unmarked) [997-aminooctanoic acid], for which the MIC in data set [3] was found to be 8 µg/mL (≈ 11.3 µM). In data set [4], the IC50 was greater than 32 µg/mL.
As to `CO[C@H]1[C@@H](OC(=O)CCCCCCCCCCN)[C@H](N2C=CC(=O)NC2)O[C@@H]1[C@@H](OC1OC(C(=O)N[C@H]2CCC[C@@H](C)NC2=O)=C[C@H](O)[C@@H]1O)C(N)=O` (some centres unmarked) [997-aminoundecanoic acid], in data set [3], the MIC was 2 µg/mL (≈ 2.66 µM). It took 32 µg/mL (≈ 42.5 µM) to reach half-maximal inhibition in [4] (IC50).
In data set [3], `CO[C@H]1[C@@H](OC(=O)[C@H](N)C(C)C)[C@H](N2C=CC(=O)NC2)O[C@@H]1[C@@H](OC1OC(C(=O)N[C@H]2CCC[C@@H](C)NC2=O)=C[C@H](O)[C@@H]1O)C(N)=O` (stereo partly drawn) [Compound 997-D-Val] yielded an MIC of 12.5 µg/mL (≈ 18.7 µM). Moreover, the IC50 in data set [4] is greater than 32 µg/mL.
